The text below walks through data of US20230339900A1, “CASEIN KINASE 1 DELTA MODULATORS” (Janssen Pharmaceutica NV, priority 2020, published 2023).

The target of test [1] is human recombinant GST cleaved CSNK1D (Homo sapiens (Human), UniProt P48730). The test is described as follows: Purified enzyme assay (ADP-Glo Kinase Assay). Type of test: biochemical. To be noted: 2 nM CSNK1D, peptide substrate 150 μM, ATP 20 μM, 45 minutes room temperature. (In general: In ADP-Glo the light output rises with the ADP produced.)
Chain of human recombinant GST cleaved CSNK1D (P48730 whole entry): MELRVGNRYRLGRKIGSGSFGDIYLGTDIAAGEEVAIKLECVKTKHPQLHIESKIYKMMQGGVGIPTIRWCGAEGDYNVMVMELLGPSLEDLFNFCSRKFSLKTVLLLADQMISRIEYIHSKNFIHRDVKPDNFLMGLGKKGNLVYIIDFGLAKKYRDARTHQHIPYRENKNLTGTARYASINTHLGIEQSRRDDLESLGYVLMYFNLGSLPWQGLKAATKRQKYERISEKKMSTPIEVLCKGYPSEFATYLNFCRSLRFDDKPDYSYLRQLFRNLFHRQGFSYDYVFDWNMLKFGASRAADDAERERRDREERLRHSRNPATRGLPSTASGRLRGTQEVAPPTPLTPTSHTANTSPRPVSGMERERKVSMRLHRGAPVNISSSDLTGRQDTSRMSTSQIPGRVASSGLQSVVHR
Test [2] deals with human CSNK1D tagged with nanoluciferase (Homo sapiens (Human), UniProt P48730). The test is described as follows: Whole Cell nBRET CSNK1D Binding Assay. To be noted: living CHO cells stably expressing human CSNK1D-nanoluciferase; NanoBret tracer 130 nM; 2 hours 37° C.; read-out: CSNK1D BRET IC50. Put shortly:
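IC50 values come from milliBRET ratios ((E630/E450)*1000) fitted against log compound concentration. Tracer displacement was run in living CHO cells stably expressing NanoLuc-fused CSNK1D, with dosed compounds and 130 nM tracer incubated 2 h at 37 °C in serum-free OptiMEM before substrate addition and donor/acceptor reading.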
On the technique in general: In BRET a luciferase serves as donor, and the signal depends on an acceptor being close.

Test [3] concerns circadian rhythms. The conditions noted are these: cellular reporter assays; cited from earlier work. Background: Reporter assays use an easily measured gene product as a stand-in for the process of interest.
In test [4] the test system is circadian rhythms. The conditions noted are these: in vivo locomotor activity of a variety of species; cited from earlier work.
For test [5] the following is noted: conditioned place preference with cocaine and alcohol reinstatement; cited from earlier work.
For test [6] the following is noted: ob/ob and diet-induced obese mouse, daily administration; cited from earlier work.

Where two headings read alike, the source gives them in different places.

Chain of human CSNK1D tagged with nanoluciferase (P48730 whole entry, the tested form may be a part): as the sequence (P48730 whole entry) above

Turning to `COc1cc2nccc(-c3cn(C)nc3-c3ccc(F)cn3)c2cn1` [Example 154, 4-[3-(5-Fluoro-2-pyridyl)-1-methyl-pyrazol-4-yl]-7-methoxy-1,6-naphthyridine], in test [1], the AC50 stood at 25 nM. Moreover, the IC50 in test [2] turned out to be 522 nM.
Taken in the same sequence, the figures for `COc1cnc2c(-c3cn(C)nc3-c3ccc(F)cn3)ccnc2c1` [Example 155, 8-[3-(5-Fluoro-2-pyridyl)-1-methyl-pyrazol-4-yl]-3-methoxy-1,5-naphthyridine] were 22 nM and 318 nM.
Taken in the same sequence, the figures for `COc1ccc2ncc(F)c(-c3cn(C)nc3-c3ccc(F)cn3)c2n1` [Example 156, 7-Fluoro-8-[3-(5-fluoro-2-pyridyl)-1-methyl-pyrazol-4-yl]-2-methoxy-1,5-naphthyridine] were 52 nM and 803 nM.
Regarding `Nc1nccc(-c2c(-c3ccc(F)cc3)ncn2C2CCCCC2)n1` [PF-670462], the “effect on circadian rhythms” value in test [3] and in test [4] was “significantly lengthened circadian rhythms” each time. In addition, the “efficacy in addiction/substance abuse models” value in test [5] is given as “have shown efficacy”.
`Nc1nccc(-c2c(-c3ccc(F)cc3)ncn2C2CCN(Cc3ccon3)CC2)n1` [PF-5006739]: the “effect on circadian rhythms” value in test [3] and in test [4] was “significantly lengthened circadian rhythms” throughout. For the same compound, the “effect on glucose tolerance” value in test [6] is recorded as “improve glucose tolerance”.

As a reminder, the AC50 is the concentration at which the activity in the assay is half-maximal. A word on the IC50: it is the concentration that gives 50% inhibition.
